Test results taken from PubChem BioAssay AID330 (DTP/NCI, 2004).
Values joined by “and” are separate entries in the source; they are usually repeats but may differ in a detail not shown here. Identical values can stand only once. Inconclusive results and toxic doses are left out. How the source made its calls: active means survival T/C of 150% or more; inactive means T/C below 125% in these data.

Tested on: P388 leukemia ip, CD2F1 mice, survival T/C
Assay: NCI In Vivo Anticancer Drug Screen. Data for tumor model P388 Leukemia (intraperitoneal) in CD2F1 (CDF1) mice
Conditions: endpoint: median survival time, higher = longer survival
Procedure, shortened: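 Mice carrying the transplanted tumor received test compound or vehicle. Survival was recorded in each group, and the value is the treated-group measurement divided by that of the vehicle-treated control group.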

[1] = dose: 50.0 mg/kg/injection, schedule: Q01DX005 (ip), vehicle: saline with Tween-80
[2] = dose: 100.0 mg/kg/injection, schedule: Q01DX005 (ip), vehicle: saline with Tween-80
[3] = dose: 200.0 mg/kg/injection, schedule: Q01DX005 (ip), vehicle: saline with Tween-80
[4] = dose: 50.0 mg/kg/injection, schedule: Q01DX009 (ip), vehicle: Klucel (hydroxypropylcellulose) (HPC)
[5] = dose: 100.0 mg/kg/injection, schedule: Q01DX009 (ip), vehicle: Klucel (hydroxypropylcellulose) (HPC)
[6] = dose: 60.0 mg/kg/injection, schedule: Q01DX005 (ip), vehicle: saline with Tween-80
[7] = dose: 120.0 mg/kg/injection, schedule: Q01DX005 (ip), vehicle: saline with Tween-80
[8] = dose: 240.0 mg/kg/injection, schedule: Q01DX005 (ip), vehicle: saline with Tween-80
[9] = dose: 25.0 mg/kg/injection, schedule: Q01DX009 (ip), vehicle: saline with Tween-80
[10] = dose: 50.0 mg/kg/injection, schedule: Q01DX009 (ip), vehicle: saline with Tween-80
[11] = dose: 100.0 mg/kg/injection, schedule: Q01DX009 (ip), vehicle: saline with Tween-80
[12] = dose: 12.5 mg/kg/injection, schedule: Q01DX005 (ip), vehicle: saline with Tween-80
[13] = dose: 25.0 mg/kg/injection, schedule: Q01DX005 (ip), vehicle: saline with Tween-80
[14] = dose: 50.0 mg/kg/injection, schedule: Q01DX005 (ip), vehicle: Klucel (hydroxypropylcellulose) (HPC)
[15] = dose: 100.0 mg/kg/injection, schedule: Q01DX005 (ip), vehicle: Klucel (hydroxypropylcellulose) (HPC)
[16] = dose: 200.0 mg/kg/injection, schedule: Q01DX005 (ip), vehicle: Klucel (hydroxypropylcellulose) (HPC)
[17] = dose: 50.0 mg/kg/injection, schedule: Q04DX003 (ip), vehicle: Klucel (hydroxypropylcellulose) (HPC)
[18] = dose: 200.0 mg/kg/injection, schedule: Q01DX009 (ip), vehicle: other

Measured: T/C

COc1cccc2c1ccc1nonc12
inactive: [1] 95 % of control | [2] 88 % of control | [3] 86 % of control

O=C1Nc2ccccc2/C1=N/N=C/c1ccccc1O
inactive: [4] 91 % of control | [5] 86 % of control

Cc1c(Cc2ccccc2)c(N2CCOCC2)n2c(nc3ccccc32)c1C#N
inactive: [6] 91 % of control | [7] 88 % of control | [8] 91 % of control

CCS(=O)(=O)OCCCCOS(=O)(=O)CC
inactive: dose: 12.5 mg/kg/injection, schedule: Q01DX009 (ip), vehicle: saline with Tween-80 100 % of control and 97 % of control | [9] 103 % of control and 93 % of control | [10] 115 % of control and 90 % of control | [11] 114 % of control and 90 % of control

CN(C)c1ccc(/C=N/Nc2nnc3c4ccccc4n(C)c3n2)cc1
inactive: [12] 91 % of control | [13] 97 % of control

O=C1NC2(CCN(Cc3ccccc3)CC2)Nc2ccccc21
inactive: [14] 99 % of control | [15] 99 % of control | [16] 97 % of control

COc1ccccc1N/N=c1/c2n(-c3ccc(Cl)cc3)c(=S)n(-c3ccccn3)c1=NCCN=2
inactive: [12] 97 % of control | [13] 100 % of control | [1] 102 % of control and 94 % of control

O=[N+]1C=Cc2ccccc2C1=C1c2ccccc2C=CN1[O-]
inactive: [13] 101 % of control | [1] 97 % of control | [2] 103 % of control

CC(C)C(=O)NCCCCCN1CCCCC1
inactive: dose: 50.0 mg/kg/injection, schedule: Q01DX005 (ip), vehicle: saline 106 % of control | dose: 100.0 mg/kg/injection, schedule: Q01DX005 (ip), vehicle: saline 99 % of control | dose: 200.0 mg/kg/injection, schedule: Q01DX005 (ip), vehicle: saline 99 % of control

Cn1c([N+](=O)[O-])cnc1/C=N\N1CC(CN2CCOCC2)OC1=O (stereo unspecified)
inactive: dose: 50.0 mg/kg/injection, schedule: Q01DX009 (ip), vehicle: suspension in saline 100 % of control | dose: 100.0 mg/kg/injection, schedule: Q01DX009 (ip), vehicle: suspension in saline 100 % of control | dose: 200.0 mg/kg/injection, schedule: Q01DX009 (ip), vehicle: suspension in saline 100 % of control

CN(C)c1ccc(C(=NNC(N)=S)c2ccc(N(C)C)cc2)cc1
inactive: dose: 12.5 mg/kg/injection, schedule: Q04DX003 (ip), vehicle: Klucel (hydroxypropylcellulose) (HPC) 96 % of control | dose: 25.0 mg/kg/injection, schedule: Q04DX003 (ip), vehicle: Klucel (hydroxypropylcellulose) (HPC) 105 % of control | [17] 99 % of control and 108 % of control

Cc1ccn2ccnc2c1
inactive: dose: 50.0 mg/kg/injection, schedule: Q01DX009 (ip), vehicle: acetone 102 % of control | dose: 100.0 mg/kg/injection, schedule: Q01DX009 (ip), vehicle: acetone 113 % of control

O=C(NCCCCCCCCNC(=O)C12CC3CC(CC(C3)C1)C2)C12CC3CC(CC(C3)C1)C2
inactive: [1] 86 % of control | [2] 86 % of control | [3] 96 % of control

Cc1[nH]c(=O)nc(Nc2ccc(Cl)cc2)c1C(=O)N1CCN(CCO)CC1
inactive: [6] 93 % of control | [7] 90 % of control and 93 % of control | [8] 102 % of control and 93 % of control

CCCCOc1ccc(/C=N/NC(=O)CNC(=O)Nc2cccc([N+](=O)[O-])c2)cc1
inactive: dose: 15.0 mg/kg/injection, schedule: Q01DX005 (ip), vehicle: saline with Tween-80 98 % of control | dose: 30.0 mg/kg/injection, schedule: Q01DX005 (ip), vehicle: saline with Tween-80 89 % of control | [6] 86 % of control and 87 % of control | [8] 91 % of control

Clc1nc(Cl)nc(Nc2ncccn2)n1
inactive: dose: 60.0 mg/kg/injection, schedule: Q01DX005 (ip), vehicle: Klucel (hydroxypropylcellulose) (HPC) 100 % of control | dose: 120.0 mg/kg/injection, schedule: Q01DX005 (ip), vehicle: Klucel (hydroxypropylcellulose) (HPC) 102 % of control

CSC1=NS(=O)(=O)c2ccccc21
inactive: [1] 96 % of control | [2] 96 % of control | [3] 103 % of control

COc1ccc(NCCOc2ccccc2Br)cc1
inactive: dose: 100.0 mg/kg/injection, schedule: Q04DX003 (ip), vehicle: other 90 % of control | dose: 132.0 mg/kg/injection, schedule: Q01DX009 (ip), vehicle: other 123 % of control | [18] 104 % of control | dose: 200.0 mg/kg/injection, schedule: Q04DX003 (ip), vehicle: other 90 % of control | dose: 300.0 mg/kg/injection, schedule: Q01DX009 (ip), vehicle: other 100 % of control | dose: 400.0 mg/kg/injection, schedule: Q04DX003 (ip), vehicle: other 95 % of control

CC(=O)N1C(C(=O)O)Cc2c([nH]c3ccccc23)C1(C)C (stereo unspecified)
inactive: dose: 100.0 mg/kg/injection, schedule: Q01DX001 (ip), vehicle: suspension in saline 108 % of control | dose: 200.0 mg/kg/injection, schedule: Q01DX001 (ip), vehicle: suspension in saline 95 % of control | dose: 400.0 mg/kg/injection, schedule: Q01DX001 (ip), vehicle: suspension in saline 107 % of control

C=C1C(=O)OC2CCCCC12 (stereo unspecified)
inactive: [17] 104 % of control | dose: 100.0 mg/kg/injection, schedule: Q04DX003 (ip), vehicle: Klucel (hydroxypropylcellulose) (HPC) 105 % of control | dose: 200.0 mg/kg/injection, schedule: Q04DX003 (ip), vehicle: Klucel (hydroxypropylcellulose) (HPC) 101 % of control

CC(=O)Nc1nc(NC(C)=O)c(N=O)c(NC(C)=O)n1
inactive: [9] 103 % of control | dose: 25.0 mg/kg/injection, schedule: Q01DX009 (ip), vehicle: saline 108 % of control | [10] 103 % of control | dose: 50.0 mg/kg/injection, schedule: Q01DX009 (ip), vehicle: saline 108 % of control and 120 % of control | [11] 94 % of control | dose: 100.0 mg/kg/injection, schedule: Q01DX009 (ip), vehicle: saline 112 % of control

Cc1ccc2c(c1)Nc1ccc(C)cc1C2(C)C
inactive: [14] 104 % of control | [15] 100 % of control | [16] 97 % of control

CCCCCCCCCCC(=O)CCCCCC
inactive: dose: 50.0 mg/kg/injection, schedule: Q01DX009 (ip), vehicle: other 90 % of control | dose: 100.0 mg/kg/injection, schedule: Q01DX009 (ip), vehicle: other 100 % of control | [18] 109 % of control

CCCCCCCCCCC(=O)N(C(C)CC(C)C)C1CC(C)CC(C)(C)C1 (stereo unspecified)
inactive: [1] 104 % of control | [2] 100 % of control | [3] 101 % of control

COc1ccc(CCNC2(C#N)CCCCC2)cc1OC
inactive: [4] 98 % of control | [5] 102 % of control

C[CH2][Sn]1([CH2]C)[O]C2C(O)OC(CO)C(O)C2[O]1 (stereo unspecified)
inactive: dose: 1.56 mg/kg/injection, schedule: Q04DX003 (ip), vehicle: saline 107 % of control and 120 % of control | dose: 3.12 mg/kg/injection, schedule: Q04DX003 (ip), vehicle: saline 107 % of control and 120 % of control | dose: 6.25 mg/kg/injection, schedule: Q04DX003 (ip), vehicle: saline 114 % of control | dose: 12.5 mg/kg/injection, schedule: Q04DX003 (ip), vehicle: saline 116 % of control

COC(=O)c1cc(=O)c2scc(C)[n+]2[nH]1
inactive: [1] 105 % of control | [2] 100 % of control | [3] 100 % of control

CCCNc1nc2c(c(=O)n1-c1ccccc1)C=C(C(=O)OC)CCN2S(=O)(=O)c1ccc(C)cc1
inactive: [6] 108 % of control | [7] 101 % of control | [8] 105 % of control

O=C1CSC(c2cc(Cl)ccc2[N+](=O)[O-])N1c1nncs1 (stereo unspecified)
inactive: dose: 100.0 mg/kg/injection, schedule: Q04DX002 (ip), vehicle: saline with Tween-80 87 % of control | dose: 200.0 mg/kg/injection, schedule: Q04DX002 (ip), vehicle: saline with Tween-80 87 % of control | dose: 400.0 mg/kg/injection, schedule: Q04DX002 (ip), vehicle: saline with Tween-80 88 % of control

CNCCOC(=O)/C=C1/CCC2C(C(O)CC3C(C)(C(=O)OC)CCCC23C)C1C (stereo unspecified)
inactive: dose: 1.5 mg/kg/injection, schedule: Q01DX009 (ip), vehicle: saline 110 % of control | dose: 3.0 mg/kg/injection, schedule: Q01DX009 (ip), vehicle: saline 102 % of control | dose: 6.0 mg/kg/injection, schedule: Q01DX009 (ip), vehicle: saline 106 % of control

CS(C)=NC(=Nc1ccc(Cl)cc1)c1ccccc1
inactive: [9] 95 % of control | [10] 106 % of control
